One data set concerns RSV A2. The data set is described as follows: RSV plaque reduction assay. The format is cell-based. The following applies: human respiratory syncytial virus, HepG2, 48 h; Hep-G2 cells, RSV A2, 2 days incubation; mean of at least two experiments. As to the method:
Compounds were subjected to an RSV plaque reduction assay according to the following protocol.
Hep-G2 cells (ECACC, 85011430) were passaged in flasks and seeded in 24-well plates in DMEM containing antibiotics and supplemented with 10% FBS. During inoculation and subsequent incubation, cells were cultured in DMEM containing 2% FBS. 100 plaque forming unit/well of RSV (RSV A2 ECACC, 0709161v) was mixed with eight serial dilutions of compound. Subsequently, 100 μL of the virus/compound mixtures was added to confluent Hep-G2 cell monolayers. The cells and virus/compound mixtures were incubated at 37° C. in a humidified 5% CO2 incubator for 2 h prior to removal of the inoculum and addition of 1 mL of overlay (DMEM containing FBS and 0.8% CMC) containing compound dilutions. The cells and were incubated at 37° C. in a humidified 5% CO2 incubator for 2 days.
Cells were washed with PBS before adding 75/25% v/v EtOH/MeOH, for 3 min. Fixative was removed and plates were washed with PBS. A pre-titrated amount of the primary antibody was added in 200 μL PBS/2% milk powder, and plates incubated for 90 min at 37° C. The plates were washed 3 times with PBS/0.05% Tween20 before addition of rabbit anti-goat horse radish peroxidase in 200 μL PBS/2% milk powder, and incubated for 1 h at 37° C. Following three wash steps with PBS/0.05% Tween20, 200 μL ready-to-use TrueBlue was added and plates were incubated at rt for 10-15 min before washing with water. After removal of water, plates were air-dried in the dark.
Plates were scanned and analysed using the Immunospot S6 Macro analyser, which is equipped with BioSpot analysis software for counting immunostained plaques (virospots). Plaque counts were used to calculate % infection relative to the mean of the plaque count in the virus control wells for RSV. The EC50 value was calculated as 50% reduction in signal, respectively, by interpolation of inhibition curves fitted with a 4-parameter nonlinear regression with a variable slope in Dotmatics. Plaque EC50 and cell toxicity CC50 values are a mean of at least two experiments and figures are rounded to whole units.
In general terms: In a plaque reduction assay, fewer plaques than in the control indicate reduced infectivity or spread.

Data set [1] is described as follows: Liver microsomal stability, dog. The format is in vitro ADME. The following applies: pooled liver microsomes, pH 7.4; dog liver microsomes 0.5 mg/mL, 1 μM compound, NADPH, 37° C.; read-out: Liver Microsomal Stability t½, dog. As to the method: (§1) Compounds were subjected to the following assays to investigate liver microsomal stability.
(§2) Microsomal Incubation: Experimental Procedure
(§3) Pooled liver microsomes were purchased from a reputable commercial supplier and stored at −80° C. prior to use. Microsomes (final protein concentration 0.5 mg/mL), 0.1 M phosphate buffer pH 7.4 and test compound (final substrate concentration 1 μM; final DMSO concentration 0.25%) were pre-incubated at 37° C. prior to the addition of NADPH (final concentration 1 mM) to initiate the reaction. The final incubation volume was 50 uL. A control incubation was included for each compound tested where 0.1 M phosphate buffer pH 7.4 was added instead of NADPH (minus NADPH). Two control compounds were included with each species. All incubations were performed singularly for each test compound. Each compound was incubated for 0, 5, 15, 30 and 45 min. The control (minus NADPH) was incubated for 45 min only. The reactions were stopped by transferring incubate into acetonitrile at the appropriate time points, in a 1:3 ratio. The termination plates are centrifuged at 3,000 rpm for 20 min at 4° C. to precipitate the protein. Following protein precipitation, the sample supernatants were combined in cassettes of up to 4 compounds, internal standard added, and samples analysed by LC-MS/MS. From a plot of ln peak area ratio (compound peak area/internal standard peak area) against time, the gradient of the line was determined. Subsequently, half-life (t1/2) and intrinsic clearance (CLint) were calculated.
For orientation: Microsomes from liver hold many membrane-bound enzymes, among them those of drug oxidation.

Data set [2] is described as follows: Liver microsomal stability, rat. In kind it is in vitro ADME. The following applies: pooled liver microsomes, pH 7.4; rat liver microsomes 0.5 mg/mL, 1 μM compound, NADPH, 37° C.; read-out: Liver Microsomal Stability t½, rat. As to the method:
as §1, §2, §3

A short description of the next data set: Cell cytotoxicity (CC50). In kind it is cell-based. The following applies: human, Hep-G2 cells; mean of at least two experiments.
Data set [3] is described as follows: Liver microsomal stability, human. The following applies: pooled liver microsomes, pH 7.4; human liver microsomes 0.5 mg/mL, 1 μM compound, NADPH, 37° C.; read-out: Liver Microsomal Stability t½, human. The format is in vitro ADME. The method, then:
as §1, §2, §3

In another data set the test system is RSV. As to conditions: Antimicrobial Agents and Chemotherapy, September 2007, 3346-3353; cited from earlier work.

Results on seven compounds are retold here after US12384764B2, “Pharmaceutical compounds” (Pfizer Inc., priority 2019, dated 2025).

As usually defined, the EC50 is the midpoint of the concentration-response curve. High values mean a need for much substance, low ones an effect from little substance. One may read the CC50 as the concentration that lowers cell viability or growth by half. Turning to `CCn1ncc(C(=O)N[C@H]2N=C(c3ccccc3)c3ccccc3NC2=O)c1Oc1c(F)cc(C)cc1F` [Example 1, 5-(2,6-Difluoro-4-methylphenoxy)-1-ethyl-N-[(3S)-2-oxo-5-phenyl-1,3-dihydro-1,4-benzodiazepin-3-yl]pyrazole-4-carboxamide], the concentration giving a half-maximal response (EC50) in the data set on RSV A2 stood at 91 nM. Besides, the half-life at 1 μM in data set [1] came to 38.6 min; in data set [2], 5 min; in data set [3], 36 min. The compound also showed a CC50 at 2 days in the data set “Cell cytotoxicity (CC50)” greater than 25000 nM.
The compound `Cc1ccc(Oc2c(C(=O)N[C@H]3N=C(c4ccccc4)c4ccccc4NC3=O)cnn2C2CCOCC2)c(F)c1` [Example 2, 5-(2-Fluoro-4-methylphenoxy)-1-(oxan-4-yl)-N-[(3S)-2-oxo-5-phenyl-1,3-dihydro-1,4-benzodiazepin-3-yl]pyrazole-4-carboxamide] showed a concentration giving a half-maximal response (EC50) with RSV A2 of 89 nM. Besides, the CC50 at 2 days in “Cell cytotoxicity (CC50)” is greater than 25000 nM.
With `O=C(N[C@H]1N=C(c2ccccc2)c2cccc(F)c2NC1=O)c1cnn(C2COC2)c1Oc1ccc(Cl)cc1F` [Example 3, 5-(4-Chloro-2-fluorophenoxy)-N-[(3S)-9-fluoro-2-oxo-5-phenyl-1,3-dihydro-1,4-benzodiazepin-3-yl]-1-(oxetan-3-yl)pyrazole-4-carboxamide], in the data set on RSV A2, a half-maximal effect (EC50) was put at 71 nM. Further, the half-life at 1 μM in data set [1] was determined as 140 min; in data set [2] it was 38.3 min; in data set [3], 24.5 min. For the same compound, in the data set “Cell cytotoxicity (CC50)”, the CC50 at 2 days was greater than 25000 nM.
On to `O=C(N[C@H]1N=C(c2ccccc2)c2cccc(F)c2NC1=O)c1cnn(C2CCOCC2)c1Oc1ccc(Cl)cc1F` [Example 4, 5-(4-Chloro-2-fluorophenoxy)-N-[(3S)-9-fluoro-2-oxo-5-phenyl-1,3-dihydro-1,4-benzodiazepin-3-yl]-1-(oxan-4-yl)pyrazole-4-carboxamide], for which, in the data set on RSV A2, it took 67 nM to reach a half-maximal effect (EC50). Moreover, the half-life at 1 μM stood at 117 min in data set [1], 19.7 min in data set [2] and 38.8 min in data set [3]. This compound had a 50% cytotoxic concentration (CC50) at 2 days in “Cell cytotoxicity (CC50)” greater than 25000 nM.
On the same counts, the results for `O=C(N[C@H]1N=C(c2ccccc2)c2cccc(F)c2NC1=O)c1cnn(C2COC2)c1Oc1c(F)cc(Cl)cc1F` [Example 5, 5-(4-Chloro-2,6-difluorophenoxy)-N-[(3S)-9-fluoro-2-oxo-5-phenyl-1,3-dihydro-1,4-benzodiazepin-3-yl]-1-(oxetan-3-yl)pyrazole-4-carboxamide] are 74 nM, 174 min, 42.3 min, 15.8 min and greater than 25000 nM.
In turn, `O=C(N[C@H]1N=C(c2ccccc2)c2cccc(F)c2NC1=O)c1cnn(C2CCOCC2)c1Oc1c(F)cc(Cl)cc1F` [Example 6, 5-(4-Chloro-2,6-difluorophenoxy)-N-[(3S)-9-fluoro-2-oxo-5-phenyl-1,3-dihydro-1,4-benzodiazepin-3-yl]-1-(oxan-4-yl)pyrazole-4-carboxamide] gave an EC50 in the data set on RSV A2 of 55 nM. This compound also yielded a CC50 at 2 days in the data set “Cell cytotoxicity (CC50)” greater than 25000 nM.
Turning to `O=C(Nc1ccccc1F)N[C@H]1N=C(c2ccccc2)c2ccccc2NC1=O` [RSV604], the anti-RSV activity entry in the data set on RSV was “sub-micromolar”.
